The results in this text go back to ChEMBL document CHEMBL4043112, “Recent synthetic and medicinal perspectives of tryptanthrin” (Bioorg Med Chem, 2017).

The subject of one data set is Malassezia furfur. As to the kind of experiment: Antifungal activity against Malassezia furfur after 2 to 4 days by agar plate dilution method. The format is functional.
Another data set concerns Staphylococcus aureus. As to the kind of experiment: Antibacterial activity against methicillin resistant Staphylococcus aureus after 24 hrs by agar plate dilution method. Format: functional.
Data set [1] has as its target Indoleamine 2,3-dioxygenase 1 (Homo sapiens, UniProt P14902). As to the kind of experiment: Inhibition of IDO-1 (unknown origin).
For data set [2], the system named is NCI/ADR-RES. As to the kind of experiment: Cytotoxicity against human MCF7/ADR cells assessed as inhibition of cell proliferation at 10^-6 M after 5 days by MTT assay. Format: functional. The settings on record: 120 h. Background: Formazan colour is commonly taken as a measure of viable cells.
For data set [3], the species on record is Homo sapiens. As to the kind of experiment: Inhibition of human DNA topoisomerase 2 ATPase activity at 200 mM by Topo-2 ATPase assay.
For data set [4], the species on record is Homo sapiens. As to the kind of experiment: Inhibition of human DNA topoisomerase 2 ATPase activity at 400 mM by Topo-2 ATPase assay.
The species named for data set [5] is Homo sapiens. As to the kind of experiment: Inhibition of human DNA topoisomerase 2 ATPase activity at 300 mM by Topo-2 ATPase assay.
In data set [6] the target is ATP-dependent translocase ABCB1 (Homo sapiens, UniProt P08183). As to the kind of experiment: Inhibition of MDR1 in human MCF7/ADR cells assessed as potentiation of verapamil-induced cytotoxicity by measuring cell growth (reference value: 78.2%). The format is cell-based. Details: scale not given: the % may be the effect or the level left.
Chain of ATP-dependent translocase ABCB1 (P08183 whole entry): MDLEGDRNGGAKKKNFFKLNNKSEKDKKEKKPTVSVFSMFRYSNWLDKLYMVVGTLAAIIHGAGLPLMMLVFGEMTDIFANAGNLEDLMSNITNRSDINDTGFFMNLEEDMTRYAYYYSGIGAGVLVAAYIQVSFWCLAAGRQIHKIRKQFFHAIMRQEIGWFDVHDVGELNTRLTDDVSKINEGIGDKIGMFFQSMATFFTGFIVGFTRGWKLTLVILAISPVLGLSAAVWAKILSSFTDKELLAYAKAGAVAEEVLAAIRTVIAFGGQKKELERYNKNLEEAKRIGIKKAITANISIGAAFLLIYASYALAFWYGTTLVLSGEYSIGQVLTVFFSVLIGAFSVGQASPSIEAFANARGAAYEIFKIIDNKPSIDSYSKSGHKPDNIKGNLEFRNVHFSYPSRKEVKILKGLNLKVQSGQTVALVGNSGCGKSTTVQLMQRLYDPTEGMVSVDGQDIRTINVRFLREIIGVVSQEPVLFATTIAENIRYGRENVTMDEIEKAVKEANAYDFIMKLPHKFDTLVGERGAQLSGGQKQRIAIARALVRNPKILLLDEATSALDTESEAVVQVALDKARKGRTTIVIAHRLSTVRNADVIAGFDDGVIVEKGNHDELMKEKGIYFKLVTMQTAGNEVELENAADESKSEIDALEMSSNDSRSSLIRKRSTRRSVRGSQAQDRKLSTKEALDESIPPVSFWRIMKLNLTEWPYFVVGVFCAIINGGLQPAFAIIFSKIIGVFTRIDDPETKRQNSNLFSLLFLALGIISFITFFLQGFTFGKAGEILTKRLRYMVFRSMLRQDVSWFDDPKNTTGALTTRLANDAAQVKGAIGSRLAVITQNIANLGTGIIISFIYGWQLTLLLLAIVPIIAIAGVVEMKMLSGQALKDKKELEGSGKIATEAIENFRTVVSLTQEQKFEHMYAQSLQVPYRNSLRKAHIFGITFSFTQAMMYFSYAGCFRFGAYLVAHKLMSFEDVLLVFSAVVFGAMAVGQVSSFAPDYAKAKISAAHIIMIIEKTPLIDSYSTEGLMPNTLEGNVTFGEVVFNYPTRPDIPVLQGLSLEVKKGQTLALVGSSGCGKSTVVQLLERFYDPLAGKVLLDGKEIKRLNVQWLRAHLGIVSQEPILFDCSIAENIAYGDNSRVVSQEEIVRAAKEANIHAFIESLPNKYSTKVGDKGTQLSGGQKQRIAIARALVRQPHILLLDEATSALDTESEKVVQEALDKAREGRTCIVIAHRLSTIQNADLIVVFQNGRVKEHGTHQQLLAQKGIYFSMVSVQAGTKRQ
The subject of data set [7] is NCI/ADR-RES. As to the kind of experiment: Cytotoxicity against human MCF7/ADR cells after 72 hrs. The format is functional, cell-based.
Data set [8] deals with MCF7. As to the kind of experiment: Cytotoxicity against human wild-type MCF7 cells after 72 hrs. The format is functional, cell-based. The settings on record: MCF7, 72 h.
The species named for data set [9] is Homo sapiens. As to the kind of experiment: Inhibition of human DNA topoisomerase 2-mediated decatenation of kinetoplast DNA at […] by kinetoplast DNA decatenation assay.
In data set [10] the test system is MCF7. As to the kind of experiment: Cytotoxicity against human wild-type MCF7 cells assessed as cell growth at 3 mM after 72 hrs relative to control. Format: functional. The settings on record: MCF7, 72 h, read-out: Activity.
The test system of data set [11] is NCI/ADR-RES. As to the kind of experiment: Cytotoxicity against human MCF7/ADR cells assessed as cell growth at 3 mM after 72 hrs relative to control. The format is functional. The settings on record: read-out: Activity.
In data set [12] the test system is Rattus norvegicus. As to the kind of experiment: Anti-inflammatory activity in Wistar Han rat assessed as reduction of carrageenan-induced pleural LTB4 levels at 10 mg/kg, po administered 1 hr prior to carrageenan challenge by HPLC analysis. Format: functional.
Data set [13] has as its target T1, Polyunsaturated fatty acid 5-lipoxygenase (Homo sapiens, UniProt P09917).
T1 sequence (P09917 whole entry): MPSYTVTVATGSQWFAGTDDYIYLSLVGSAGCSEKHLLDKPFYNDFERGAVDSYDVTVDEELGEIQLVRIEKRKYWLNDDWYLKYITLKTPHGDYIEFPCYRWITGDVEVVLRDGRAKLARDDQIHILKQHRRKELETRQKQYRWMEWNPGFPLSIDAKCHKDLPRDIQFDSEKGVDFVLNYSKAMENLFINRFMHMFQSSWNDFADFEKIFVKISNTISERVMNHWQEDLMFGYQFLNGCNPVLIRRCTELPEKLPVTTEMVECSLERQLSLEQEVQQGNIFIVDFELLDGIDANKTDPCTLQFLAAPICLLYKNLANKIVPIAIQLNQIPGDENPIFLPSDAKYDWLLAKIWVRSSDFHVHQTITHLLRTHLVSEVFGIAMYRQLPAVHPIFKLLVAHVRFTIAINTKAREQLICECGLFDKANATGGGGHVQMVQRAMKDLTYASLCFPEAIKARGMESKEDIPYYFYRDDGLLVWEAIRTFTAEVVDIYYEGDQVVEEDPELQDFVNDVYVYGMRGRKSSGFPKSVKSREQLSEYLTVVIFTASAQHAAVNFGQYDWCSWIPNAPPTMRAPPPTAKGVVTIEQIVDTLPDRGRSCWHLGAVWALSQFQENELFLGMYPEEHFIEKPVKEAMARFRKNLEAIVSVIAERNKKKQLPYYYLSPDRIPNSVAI
As to the kind of experiment: Inhibition of 5-LO in fMLP-stimulated human neutrophils by HPLC analysis.

Data set [14] has as its system K562. As to the kind of experiment: Antiproliferative activity against human K562 cells after 48 hrs by MTT staining-based method. Format: functional, cell-based. To be noted: K562, 48 h.
Data set [15] deals with HL-60. As to the kind of experiment: Antiproliferative activity against human HL60 cells after 48 hrs. Format: functional, cell-based.
Data set [16] concerns K562. As to the kind of experiment: Induction of apoptosis in human K562 cells assessed as late apoptotic cells at 25 ug/ml by Annexin V/propidium iodide staining-based flow cytometry. Format: functional. (In flow cytometry, cells or beads pass a laser one at a time.)
Data set [17] relates to K562. As to the kind of experiment: Induction of apoptosis in human K562 cells assessed as late apoptotic cells at 12.5 ug/ml by Annexin V/propidium iodide staining-based flow cytometry. Format: functional.
Data set [18] can be described thus: Inhibition of EGF-induced HGF production in HDF at 2 mg/ml after 72 hrs by ELISA. Format: functional. To be noted: Homo sapiens. (In general: In an ELISA, binding on a coated surface is turned into a signal by an enzyme label.)
Data set [19] deals with K562. As to the kind of experiment: Induction of apoptosis in human K562 cells assessed as late apoptotic cells at 6.25 ug/ml by Annexin V/propidium iodide staining-based flow cytometry. Format: functional.
The subject of data set [20] is MOLT-4. As to the kind of experiment: Antiproliferative activity against human MOLT4 cells after 48 hrs. Format: functional, cell-based. The settings on record: MOLT-4, 48 h.
For data set [21], the system named is Rattus norvegicus. As to the kind of experiment: Anti-inflammatory activity in Wistar Han rat assessed as reduction of carrageenan-induced PGE2 levels at 10 mg/kg, po administered 1 hr prior to carrageenan challenge by radioimmunoassay. The format is functional.
Data set [22] in a line: Antiproliferative activity against spleen cells from SBP-immunized mouse assessed as fluorescence intensity at 10 uM after 3 days by Alamar blue dye-based method (reference value: 2781 +/- 59I). Format: functional, Spleen cell.
For data set [23], the system named is K562. As to the kind of experiment: Antiproliferative activity against human K562 cells after 24 hrs. Format: functional, cell-based. To be noted: K562, 24 h.
A short description of data set [24]: Inhibition of PMA-induced HGF production in HDF at 0.1 mg/ml after 24 hrs by ELISA. To be noted: Homo sapiens. The format is functional.
Data set [25] addresses T1, Polyunsaturated fatty acid 5-lipoxygenase. As to the kind of experiment: Inhibition of 5-LO in LPS-stimulated human neutrophils by HPLC analysis.
Data set [26] concerns MOLT-4. As to the kind of experiment: Antiproliferative activity against human MOLT4 cells after 24 hrs. Format: functional, cell-based. The settings on record: MOLT-4, 24 h.
Data set [27] has as its system K562. As to the kind of experiment: Antiproliferative activity against human K562 cells after 48 hrs. The format is functional, cell-based. The settings on record: K562, 48 h.
The test system of data set [28] is Rattus norvegicus. As to the kind of experiment: Anti-inflammatory activity in Wistar Han rat assessed as reduction in carrageenan-induced increase in infiltrating cells at 10 mg/kg, po administered 1 hr prior to carrageenan challenge by vital trypan blue staining-based microscopic method. Format: functional.
Data set [29] deals with Rattus norvegicus. As to the kind of experiment: Anti-inflammatory activity in Wistar Han rat assessed as reduction in carrageenan-induced exudate volume at 10 mg/kg, po administered 1 hr prior to carrageenan challenge. Format: functional.
The nature of data set [30]: Antiproliferative activity against spleen cells from SBP-immunized mouse assessed as fluorescence intensity at 5 uM after 3 days by Alamar blue dye-based method (reference value: 2781 +/- 59I). The format is functional, Spleen cell.
For data set [31], the system named is HL-60. As to the kind of experiment: Antiproliferative activity against human HL60 cells after 24 hrs. Format: functional, cell-based. To be noted: HL-60, 24 h.

≈ marks a conversion by molar mass, not a printed value. Where a name gives a salt, the structure may show the parent alone.

Chain of Indoleamine 2,3-dioxygenase 1 (P14902 whole entry): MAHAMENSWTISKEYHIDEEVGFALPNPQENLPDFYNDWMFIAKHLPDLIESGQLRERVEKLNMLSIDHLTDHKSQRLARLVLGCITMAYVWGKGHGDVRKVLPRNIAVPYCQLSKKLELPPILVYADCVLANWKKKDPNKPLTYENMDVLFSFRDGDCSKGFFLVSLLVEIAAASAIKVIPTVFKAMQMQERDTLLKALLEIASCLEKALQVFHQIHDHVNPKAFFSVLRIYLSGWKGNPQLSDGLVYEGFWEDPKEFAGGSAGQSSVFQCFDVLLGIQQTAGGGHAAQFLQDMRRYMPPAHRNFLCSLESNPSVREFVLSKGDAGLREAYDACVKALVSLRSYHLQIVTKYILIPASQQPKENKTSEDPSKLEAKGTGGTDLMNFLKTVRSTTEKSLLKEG

Usually MIC stands for the lowest concentration that inhibits growth of the organism. Consider `O=C1c2cc(F)ccc2-n2c1nc1ccccc1c2=O`, for which the MIC in the data set with Malassezia furfur came to 1 µg/mL (≈ 3.76 µM); in the data set with Staphylococcus aureus, 0.1 µg/mL (≈ 0.376 µM).

What is called IC50 is the concentration needed to halve the response being measured. In turn, `N[C@@H](Cc1c[nH]c2ccccc12)C(=O)O` [TRYPTOPHAN] had an IC50 in data set [1] of 499 µM.

On to `O=C1c2ccccc2-n2c1nc1ccc([N+](=O)[O-])cc1c2=O`, for which the MIC against Malassezia furfur was over 160 µg/mL; against Staphylococcus aureus it was over 100 µg/mL.

The term inhibition denotes the change of the read-out against control, counted positive when it falls. Consider `COc1cccc2c1C(=O)c1c(O)c3c(c(O)c1C2=O)C[C@@](O)(C(=O)CO)C[C@@H]3O[C@H]1C[C@H](N)[C@H](O)[C@H](C)O1` [DOXORUBICIN], for which, in the data set with NCI/ADR-RES [2], the inhibition at 1 µM was 20%.

Consider `O=C1c2ccccc2-n2c1nc1ccc(Br)cc1c2=O`, for which the MIC in the data set on Malassezia furfur came out at 4 µg/mL (≈ 12.2 µM); against Staphylococcus aureus it was 0.3 µg/mL (≈ 0.917 µM).

In the case of `Cc1ccc2c(c1)C(=O)c1nc3ccccc3c(=O)n1-2`, the MIC in the data set with Malassezia furfur is over 120 µg/mL; against Staphylococcus aureus, 0.5 µg/mL (≈ 1.91 µM).

For the compound `CO[C@@H]1[C@@H](OC(N)=O)[C@@H](O)[C@H](Oc2ccc3c(O)c(NC(=O)c4ccc(O)c(CC=C(C)C)c4)c(=O)oc3c2C)OC1(C)C`, the inhibition was determined as 38.5% in the data set filed under Homo sapiens [3], 60.2% in the data set listed under Homo sapiens [4] and 45.9% in the data set filed under Homo sapiens [5].

On to `O=C1c2cc3ccccc3cc2-n2c1nc1ccccc1c2=O`, for which, in [6], the Activity came out at 59%. Also, the IC50 lay in the range of 0.16 to 9.82 µM in the data set on NCI/ADR-RES [7] and 0.27 to 12.1 µM with MCF7 [8]. Moreover, the figures for the inhibition in the data set listed under Homo sapiens [3], in the data set filed under Homo sapiens [4] and in the data set listed under Homo sapiens [9] were 30.7%, 47.2% and 43.4%, respectively.

With `COc1cccc2c1C(=O)c1c(O)c3c(c(O)c1C2=O)C[C@@](O)(C(=O)CO)C[C@@H]3O[C@H]1C[C@H](N)[C@H](O)[C@H](C)O1` [DOXORUBICIN HYDROCHLORIDE], the growth at 3000 µM with MCF7 [10] lay in the range of 3.9 to 24.1%; in the data set on NCI/ADR-RES [11], 0.44 to 78.2%. Moreover, the IC50 in the data set on NCI/ADR-RES [7] was over 50 µM; in the data set with MCF7 [8] it was 0.99 to 2.63 µM.

Take `Nc1ccc2nc3n(c(=O)c2c1)-c1ccccc1C3=O`: the MIC in the data set on Malassezia furfur amounted to 20 µg/mL (≈ 76 µM); against Staphylococcus aureus, 2 µg/mL (≈ 7.6 µM).

In general, inhibition in vivo refers to the percentage by which the read-out fell short of the control. For the compound `O=C1c2ccccc2-n2c1nc1ccccc1c2=O` [TRYPTANTHRIN], the inhibition in vivo at 10 mg/kg in the data set on Rattus norvegicus [12] is 46%; with Rattus norvegicus [21], 42%; in the data set on Rattus norvegicus [28] it was 41%; in the data set on Rattus norvegicus [29] it was 80%. Besides, the IC50 with NCI/ADR-RES [7] was 0.03 to 10 µM; in data set [13], 0.2 to 0.6 µM; with K562 [14], 8.8 µg/mL (≈ 35.4 µM); with HL-60 [15] it was 2 to 20000 µM; with MCF7 [8], 0.58 to 15.5 µM; in the data set on MOLT-4 [20], 8 µM. Further, the IC50 is 15 µM in the data set on K562 [23]; 0.2 to 0.6 µM in [25]; 10 µM in the data set with MOLT-4 [26]; 5 µM in the data set on K562 [27]; 499 µM in data set [1]; 5 µM with HL-60 [31]. Further, the figures for the MIC with Malassezia furfur and with Staphylococcus aureus were 4 µg/mL (≈ 16.1 µM) and 0.5 µg/mL (≈ 2.01 µM), respectively. Besides, the results for the Activity in the data set on K562 [16], with K562 [17] and with K562 [19] were 52.2%, 33.4% and 21.9%, respectively. The same compound returned an inhibition at 2000 µg/mL in [18] of 70%. Also, the Flu intensity in data set [22] amounted to 2740; in data set [30], 2826. The inhibition at 100 µg/mL in [24] is 70%.

In the case of `O=C1c2ccccc2-n2c1nc1ccc(Cl)cc1c2=O`, the MIC is 4 µg/mL (≈ 14.1 µM) against Malassezia furfur and 0.1 µg/mL (≈ 0.354 µM) with Staphylococcus aureus.

With `O=C1c2cc(Br)ccc2-n2c1nc1ccccc1c2=O`, the MIC in the data set with Malassezia furfur came out at 2.5 µg/mL (≈ 7.64 µM); with Staphylococcus aureus, 0.1 µg/mL (≈ 0.306 µM).

Regarding `COc1ccc2c(c1)C(=O)c1nc3ccccc3c(=O)n1-2`, the MIC against Malassezia furfur was over 120 µg/mL; in the data set on Staphylococcus aureus, 2.5 µg/mL (≈ 8.98 µM).

As for `COc1ccc(CCN(C)CCCC(C#N)(c2ccc(OC)c(OC)c2)C(C)C)cc1OC` (configuration not stated), the Activity in data set [6] was found to be 18.1%.
